#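 Grown in 96-well plates, cells were treated for 48 hours with each compound at five concentrations. Insufficient inhibition: endpoint recorded as highest concentration tested. At the GI50, growth is halved.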 Active and inactive are the calls of the source. Cut-off read from the data, not from the text of the source: active = GI50 up to about 1.1 µM and inactive = higher.
# Experiments:
# Assay in all cases: DTP human tumour cell line panel, 48 h
# SK-MEL-2 = system: SK-MEL-2
# HCT-116 = system: HCT-116
# EKVX = system: EKVX
# UACC-257 = system: UACC-257
# RPMI-8226 = system: RPMI-8226
# HT-29 = system: HT-29
# 786-0 = system: 786-0
# RXF 393 = system: RXF 393
# A549 = system: A549
# A498 = system: A498
# HOP-62 = system: HOP-62
# SF-268 = system: SF-268
# U-251 = system: U-251
# OVCAR-5 = system: OVCAR-5
# HCT-15 = system: HCT-15
# Malme-3M = system: Malme-3M
# NCI-H522 = system: NCI-H522
# OVCAR-4 = system: OVCAR-4
# LXFL 529 = system: LXFL 529
Compound,GI50 (SK-MEL-2),GI50 (HCT-116),GI50 (EKVX),GI50 (UACC-257),GI50 (RPMI-8226),GI50 (HT-29),GI50 (786-0),GI50 (RXF 393),GI50 (A549),GI50 (A498),GI50 (HOP-62),GI50 (SF-268),GI50 (U-251),GI50 (OVCAR-5),GI50 (HCT-15),GI50 (Malme-3M),GI50 (NCI-H522),GI50 (OVCAR-4),GI50 (LXFL 529)
CC1(C)C(c2ccccc2)C12CCC1(C2=O)C(c2ccccc2)C1(C)C (centres undefined),19.7 µM (inactive),16.6 µM (inactive),25.1 µM (inactive),17.9 µM (inactive),14.3 µM (inactive),16.1 µM (inactive),25.2 µM (inactive),20.1 µM (inactive),26.4 µM (inactive),34.6 µM (inactive),26.1 µM (inactive),29.4 µM (inactive),17.8 µM (inactive),24.7 µM (inactive),24.2 µM,26.7 µM (inactive),13.5 µM (inactive),31.3 µM (inactive),31.5 µM (inactive)
O=C1c2cccc3cc([N+](=O)[O-])cc(c23)C(=O)N1NC1=NCCN1,> 100 µM (inactive),> 100 µM (inactive),> 100 µM (inactive),> 100 µM (inactive),> 100 µM (inactive),> 100 µM (inactive),> 100 µM (inactive),> 100 µM (inactive),> 100 µM (inactive),> 100 µM (inactive),> 100 µM (inactive),> 100 µM (inactive),> 100 µM (inactive),> 100 µM (inactive),> 100 µM,> 100 µM (inactive),> 100 µM (inactive),> 100 µM (inactive),> 100 µM (inactive)
C=CCOCCCCC(C(C)=O)C(=O)OC (centres undefined),> 100 µM (inactive),> 100 µM (inactive),–,> 100 µM (inactive),> 100 µM (inactive),> 100 µM (inactive),> 100 µM (inactive),> 100 µM (inactive),> 100 µM (inactive),> 100 µM (inactive),–,> 100 µM (inactive),> 100 µM (inactive),> 100 µM (inactive),> 100 µM,> 100 µM (inactive),> 100 µM (inactive),> 100 µM (inactive),> 100 µM (inactive)
Cc1cc(Cl)ccc1NC(=O)CC1SC(N)=NC1=O (centres undefined),> 100 µM (inactive),–,> 100 µM (inactive),> 100 µM (inactive),> 100 µM (inactive),> 100 µM (inactive),> 100 µM (inactive),> 100 µM (inactive),> 100 µM (inactive),17.7 µM (inactive),> 100 µM (inactive),> 100 µM (inactive),> 100 µM (inactive),> 100 µM (inactive),> 100 µM,> 100 µM (inactive),> 100 µM (inactive),> 100 µM (inactive),> 100 µM (inactive)
Cc1ccc(NC(=O)C2C3C=CC(O3)C2C(=O)O)cc1 (centres undefined),> 100 µM (inactive),> 100 µM (inactive),> 100 µM (inactive),87.1 µM (inactive),24.3 µM (inactive),19.8 µM (inactive),53.3 µM (inactive),23.6 µM (inactive),> 100 µM (inactive),> 100 µM (inactive),> 100 µM (inactive),> 100 µM (inactive),> 100 µM (inactive),> 100 µM (inactive),> 100 µM,> 100 µM (inactive),> 100 µM (inactive),> 100 µM (inactive),> 100 µM (inactive)
Nc1nc2ncn(CCO)c2c(=S)[nH]1,> 100 µM (inactive),> 100 µM (inactive),> 100 µM (inactive),> 100 µM (inactive),> 100 µM (inactive),> 100 µM (inactive),> 100 µM (inactive),> 100 µM (inactive),> 100 µM (inactive),> 100 µM (inactive),> 100 µM (inactive),> 100 µM (inactive),> 100 µM (inactive),> 100 µM (inactive),> 100 µM,> 100 µM (inactive),> 100 µM (inactive),> 100 µM (inactive),> 100 µM (inactive)
CC(C)CC(=O)N1CCN(C(=O)CC(C)C)c2ccccc21,> 100 µM (inactive),> 100 µM (inactive),> 100 µM (inactive),> 100 µM (inactive),> 100 µM (inactive),> 100 µM (inactive),> 100 µM (inactive),> 100 µM (inactive),> 100 µM (inactive),> 100 µM (inactive),> 100 µM (inactive),> 100 µM (inactive),> 100 µM (inactive),> 100 µM (inactive),–,> 100 µM (inactive),> 100 µM (inactive),–,> 100 µM (inactive)
O=[N+]([O-])c1ccccc1[S+]([O-])c1ccccc1 (centres undefined),> 100 µM (inactive),57.9 µM (inactive),–,20.7 µM (inactive),52.5 µM (inactive),62.7 µM (inactive),> 100 µM (inactive),84.1 µM (inactive),52.8 µM (inactive),63.2 µM (inactive),> 100 µM (inactive),77.6 µM (inactive),41.2 µM (inactive),> 100 µM (inactive),38.7 µM,> 100 µM (inactive),65.6 µM (inactive),49.2 µM (inactive),> 100 µM (inactive)
CCc1cccc(C)c1NC(=O)NS(=O)(=O)c1ccc(C)cc1,> 100 µM (inactive),> 100 µM (inactive),> 100 µM (inactive),> 100 µM (inactive),> 100 µM (inactive),–,> 100 µM (inactive),> 100 µM (inactive),> 100 µM (inactive),> 100 µM (inactive),> 100 µM (inactive),> 100 µM (inactive),> 100 µM (inactive),> 100 µM (inactive),> 100 µM,> 100 µM (inactive),> 100 µM (inactive),> 100 µM (inactive),> 100 µM (inactive)
CC(C)C(=O)Nc1nc2[nH]cnc2c(=O)[nH]1,> 100 µM (inactive),> 100 µM (inactive),> 100 µM (inactive),> 100 µM (inactive),> 100 µM (inactive),> 100 µM (inactive),> 100 µM (inactive),> 100 µM (inactive),> 100 µM (inactive),> 100 µM (inactive),> 100 µM (inactive),> 100 µM (inactive),> 100 µM (inactive),> 100 µM (inactive),> 100 µM,> 100 µM (inactive),> 100 µM (inactive),> 100 µM (inactive),> 100 µM (inactive)
C/C(CCn1[nH]c(=O)ccc1=O)=N\Nc1ccc([N+](=O)[O-])cc1[N+](=O)[O-],> 100 µM (inactive),> 100 µM (inactive),> 100 µM (inactive),> 100 µM (inactive),> 100 µM (inactive),> 100 µM (inactive),> 100 µM (inactive),> 100 µM (inactive),> 100 µM (inactive),> 100 µM (inactive),> 100 µM (inactive),> 100 µM (inactive),–,> 100 µM (inactive),23.6 µM,> 100 µM (inactive),–,> 100 µM (inactive),14.6 µM (inactive)
Cc1ccc(C2=C(c3ccccc3)C(O)(c3ccccc3)C(c3ccccc3)=C2c2ccc(C)cc2)cc1,6.17 µM (inactive),29.9 µM (inactive),64 µM (inactive),> 100 µM (inactive),35.7 µM (inactive),46.2 µM (inactive),> 100 µM (inactive),> 100 µM (inactive),> 100 µM (inactive),> 100 µM (inactive),> 100 µM (inactive),> 100 µM (inactive),31.5 µM (inactive),> 100 µM (inactive),35.2 µM,> 100 µM (inactive),> 100 µM (inactive),–,> 100 µM (inactive)
CC(C)(C)c1cc(-c2c3nc(c(-c4cc(C(C)(C)C)cc(C(C)(C)C)c4)c4ccc([nH]4)c(-c4cc(C(C)(C)C)cc(C(C)(C)C)c4)c4nc(c(-c5cc(C(C)(C)C)cc(C(C)(C)C)c5)c5ccc2[nH]5)C=C4)C=C3)cc(C(C)(C)C)c1,> 100 µM (inactive),> 100 µM (inactive),> 100 µM (inactive),> 100 µM (inactive),> 100 µM (inactive),> 100 µM (inactive),> 100 µM (inactive),> 100 µM (inactive),> 100 µM (inactive),> 100 µM (inactive),> 100 µM (inactive),> 100 µM (inactive),> 100 µM (inactive),> 100 µM (inactive),> 100 µM,> 100 µM (inactive),> 100 µM (inactive),> 100 µM (inactive),> 100 µM (inactive)
O=C(O)COc1ccc(C(=O)/C(SS/C(C(=O)c2ccc(OCC(=O)O)c(Cl)c2Cl)=C2\C=C(c3ccc(Cl)cc3)SS2)=C2/C=C(c3ccc(Cl)cc3)SS2)c(Cl)c1Cl,14.1 µM (inactive),9.08 µM (inactive),57.1 µM (inactive),78.2 µM (inactive),22.3 µM (inactive),34.5 µM (inactive),13.5 µM (inactive),–,21.4 µM (inactive),31.1 µM (inactive),39.8 µM (inactive),11.2 µM (inactive),4.2 µM (inactive),30.1 µM (inactive),5.78 µM,33.7 µM (inactive),2.18 µM (inactive),5.27 µM (inactive),4.61 µM (inactive)
COc1cc(C2c3cc4c(cc3[C@@H](Nc3ccc(N)cc3)C3COC(=O)[C@H]23)OCO4)cc(OC)c1O (some centres undefined),5.73 µM (inactive),2.7 µM (inactive),3.64 µM (inactive),7.19 µM (inactive),0.425 µM (active),3.64 µM (inactive),0.908 µM (active),3.91 µM (inactive),0.137 µM (active),1.18 µM (inactive),0.363 µM (active),1.63 µM (inactive),0.401 µM (active),4.08 µM (inactive),2.21 µM,2.13 µM (inactive),2.22 µM (inactive),24.5 µM (inactive),8.59 µM (inactive)

# Source: ChEMBL document CHEMBL1201862, “PubChem BioAssay data set” (2004)
